One series relates to BNL CL.2 cells. The series is described as follows: Cell viability analysis in untransformed liver cells BNL CL.2 (CellTiter-Glo). The following applies: BNL CL.2, 5d, with 2 μM sorafenib. Format: cell-based. How it is done: To further determine the therapeutic potential of compound 40, we analyzed the effect of a combinatorial lipotoxic therapy with this agonist in untransformed liver cells. We applied the well-established untransformed liver cell lines AML12 and BNL CL.2 and subjected them to treatment with 40 in combination with sorafenib.
For organoid treatment studies, digestion of organoids was performed using TrypLE Express (Gibco) supplemented with 100 μg/mL DNaseI and 10.5 μM Y-27632 dihydrochloride (Invitrogen) at 37 °C, and afterward, single-cells were plated in white 96 well plates (Sarstedt) in a mixture of 10% Matrigel (Growth Factor Reduced (GFR) Matrigel, Corning) in culture medium. Cell viability was determined after 5 days of treatment using the CellTiter-Glo 3D Cell Viability Assay Kit (Promega). Cell viability of Hep3B, AML12, and BNL CL.2 cells was determined after 5 days of treatment in white 96 well plates (Sarstedt) using the CellTiter-Glo 2.0 Cell Viability Assay Kit (Promega). AML12 and BNL CL.2 cells were also obtained from the American Type Culture Collection. The luminescence signal was measured using an […] M PLEX plate reader (Tecan) and the Tecan i-control software (v3.9.1). Sodium oleate (Selleckchem) was dissolved in methanol and added to cells at a final concentration of 200 μM.

Another series has as its target T1, LXRβ (Homo sapiens, UniProt P55055).
T1 construct: To measure the activity of the remaining isoform under treatment; endogenous in cells; host or cells: Hep3B (NR1H3 knockout, LXRE-GFP reporter)
T1 sequence (P55055 1-460): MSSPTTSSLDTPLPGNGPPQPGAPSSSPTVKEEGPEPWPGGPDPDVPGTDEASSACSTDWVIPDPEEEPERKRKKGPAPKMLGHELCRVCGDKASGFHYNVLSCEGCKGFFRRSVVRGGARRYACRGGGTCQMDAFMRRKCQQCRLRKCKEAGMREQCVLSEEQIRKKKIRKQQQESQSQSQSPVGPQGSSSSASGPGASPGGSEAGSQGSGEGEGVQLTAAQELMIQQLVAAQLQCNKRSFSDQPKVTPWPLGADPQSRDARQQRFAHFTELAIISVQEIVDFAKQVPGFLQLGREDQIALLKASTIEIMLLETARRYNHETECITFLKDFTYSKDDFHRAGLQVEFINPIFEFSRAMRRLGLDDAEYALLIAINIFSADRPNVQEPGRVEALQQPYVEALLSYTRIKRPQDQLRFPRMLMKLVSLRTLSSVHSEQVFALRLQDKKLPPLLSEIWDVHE
The series is described as follows: LXRβ-specific LXRE-GFP reporter assay in Hep3B cells (NR1H3 knockout). Format: cell-based. Conditions: 48h of treatment, GFP by FACS. For orientation: A reporter such as luciferase makes a cellular process visible.

Series [1] deals with VDR, PPARα, PPARγ, ERα, ERβ, FXR, AhR, mCAR. The series can be described thus: Nuclear receptor panel screening, luciferase reporter assays in HepG2 cells. The following applies: HepG2, 10 μM, 24 h. Format: cell-based. Here is the method:
To examine the specificity of compound 40 (and as a control compound 46) toward other nuclear receptors, we assessed their activity in activating eight critical nuclear receptors with cellular reporter assays at saturating concentrations (10 μM). We chose nuclear receptors that are either known to directly or indirectly regulate metabolic processes in the liver, including vitamin D receptor (VDR), peroxisome proliferator-activated receptors α and γ (PPAR α and γ), estrogen receptor α and β (ERα and β) and farnesoid X receptor (FXR) or are relevant in drug metabolism such as aryl hydrocarbon receptor (AhR) and the mice constitutive androstane receptor (mCAR).
For nuclear receptor panel screening, the HepG2 cell line (obtained by American Type Culture Collection) was maintained in DMEM (Gibco) supplemented with 10% FBS+ 1% nonessential amino acids medium and incubated at 37 °C. Plasmids for mouse constitutive androstane receptor (mCAR) and its luciferase gene reporter construct p2B6-luc have been described in Mejdrová et al.[24] Other luciferase reporter constructs have been described in Stefela et al.[25] The transient transfection experiments were performed on 48-well format plates 24 h after cell seeding (1.1 × 10^5 per well). The Lipofectamine 3000 transfection reagent was used according to the manufacturer’s instructions. […]

Series [2] relates to Akt1^Myr; Myc^OE HCC organoids. The series can be described thus: Cell viability analysis in HCC organoids (CellTiter-Glo 3D). Format: cell-based, murine. Conditions: 5d, with 4 μM sorafenib. From the text:
Finally, we analyzed the efficacy of compound 40 in preclinical treatment studies in three-dimensional liver cancer organoid cultures. HCC organoids driven by myristoylated Akt1 and overexpressed Myc (Akt1^Myr; Myc^OE) were isolated from murine liver tumors and subjected to monotherapies of sorafenib, compound 40, or a combination thereof (Figure 7C). The therapeutic outcome was side-by-side compared with combinatorial therapies comprising the established agonists T0901317 (1) and GW3965 (2). […] Isolation of murine HCC organoid cultures was performed from liver tumors derived from C57BL/6 mice using established protocols.[26] The animal experiments were approved by committees of the regional authority of the state of Baden-Wuerttemberg (Regierungspraesidium Tuebingen, authorization number M15/18G) as appropriate. After digestion, the organoids were embedded in 100% Growth Factor Reduced (GFR) MatrigelTM (Corning) and cultured at 37 °C and 5% CO2 in HCC organoid medium supplemented with nicotinamide (10 mM), N-acetylcystein (1.25 mM), human HGF (50 ng/mL), human FGF-10 (100 ng/mL), human R-Spondin (0.5 μg/mL), forskolin (10 μM), A83- 01 (0.5 μM), murine Noggin (50 ng/mL), gastrin I (10 nM), human BMP-7 (25 ng/mL), human Wnt3a (100 ng/mL), B27 supplement (1×) and N2 supplement (1×). The cultures were split by mechanical dissociation every 3 to 4 days. […] Cell viability was determined after 5 days of treatment using the CellTiter-Glo 3D Cell Viability Assay Kit (Promega). Cell viability of Hep3B, AML12, and BNL CL.2 cells was determined after 5 days of treatment in white 96 well plates (Sarstedt) using the CellTiter-Glo 2.0 Cell Viability Assay Kit (Promega). […] The luminescence signal was measured using an […] M PLEX plate reader (Tecan) and the Tecan i-control software (v3.9.1). […]
For orientation: Cellular ATP, detected with luciferase, serves as a proxy for viable cell number.

pEC50: −log10 of the molar value.

With `O=C1C(Nc2ccc(N3CCCCC3)cc2)=C(c2ccccc2)C(=O)N1Cc1ccccc1` [Compound 40, 1-Benzyl-3-phenyl-4-((4-(piperidin-1-yl)phenyl)amino)-1H-pyrrole-2,5-dione], the “sensitivity of untransformed liver cells to combination therapy (cell viability)” value with BNL CL.2 cells is reported as “only very low sensitivity”. Moreover, on LXRβ, the negative logarithm of the EC50 (pEC50) (commonly the negative decadic logarithm of the EC50, by convention in mol/L) is 6.20. In addition, the “activation of eight other nuclear receptors” value in series [1] is reported as “no relevant activation”. Moreover, the “therapeutic efficacy (cell viability) in combination with sorafenib” value in series [2] is reported as “further improved therapeutic efficacy”.
